For 14 compounds, IC50 results are on record in patent US12459921B2, “Isoindoline compound, preparation method, pharmaceutical composition and use thereof” (SHANGHAI INSTITUTE OF MATERIA MEDICA, CHINESE ACADEMY OF …, priority 2018, dated 2025).

Like-named read-outs stand apart in the source and are kept apart here.

Assay [1] deals with MM.1S cells. Briefly: Inhibitory effect on the proliferation of MM.1S, MTS cell viability test. It counts as cell-based. To be noted: multiple myeloma MM.1S cells, 7 days incubation, read-out: Tumor cell inhibitory activity. The method in brief:
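Viability measured by MTS (OD490 minus OD690 background, 3-4 h) after a 7-day exposure of 20,000 MM.1S cells/well to 5-fold serially diluted compound, 0.2% DMSO final. Inhibition calculated relative to DMSO wells; IC50 curve-fitted, averaged over three repeats.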
(In general: Tetrazolium dyes change colour on reduction, which living cells bring about.)

For assay [2], the system named is MV-4-11 cells. Briefly: Inhibitory effect on the proliferation of MV-4-11 cells, MTS cell viability test. The conditions noted are these: acute leukemia MV-4-11 cells, 7 days incubation, read-out: Tumor cell inhibitory activity. It counts as cell-based. As to the method: Method of tumor cell proliferation inhibition test: the inventors tested all the example compounds on hematologic tumor cells, multiple myeloma MMTs cell line and acute leukemia cell MV-4-11 cell line of some examples. The activity test method and results are as follows.
2. The Inhibitory Effect of Compounds on the Proliferation of MV-4-11 Cells, MTS Cell Viability Test: 1). Experimental Method:
MV-4-11 cells were cultured and collected with IMDM and 10% fetal bovine serum. The cell concentration was diluted according to 7 days, and 180 ul of cell suspension was added to each well of a 96-well cell plate to 2000 cells. 20 ul of DMSO with a final concentration of 0.2% was added to the control wells. The compound was diluted 5-fold from the 10 mM stock solution, and 20 ul was also added to the compound cell wells (the final concentration of DMSO was 0.2%). The cells were placed in a 37° C., 5% CO2 incubator and incubated for 7 days. After the reaction solution was prepared according to the MTS kit (Promega, G5430), 20 μL was added to each well, incubated in a 37° C., 5% CO2 incubator for 3-4 h. The 490 nm absorbance value was read with a microtiter plate, and the 690 nm absorbance value was used as the background value. OD490-OD690 was used as the final initial data. The formula for calculating the inhibition rate of the compound was: inhibition rate=(ODDMSO-ODcompound)/(ODDMSO-Oblank)×100%. The compound's proliferation inhibition IC50 was fitted by Graph Pad Prism 5.0. The experiment was repeated three times, and the average and standard deviation was calculated according to three parallel experiments each time.

As for `O=C1CCC(N2Cc3c(CCCCCN4CCC5(CCc6ccccc65)CC4)cccc3C2=O)C(=O)N1` (stereo not shown) [Example 143, 3-(4-(5-(2,3-dihydrospiro[indene-1,4′-piperidine]-1′-)pentyl)-1-oxoisoindoline-2-)piperidine-2,6-dione], the IC50 in assay [1] (Homo sapiens, MM1.S, 168 h) is < 100 nM; in assay [2] (Homo sapiens, MV4-11, 168 h), 610 nM.
Turning to `Cc1ccc(NC(=O)CCCOc2cccc3c2CN(C2CCC(=O)NC2=O)C3=O)cc1Cl` (stereo not shown) [Example 158, N-(3-chloro-4-methylphenyl)-4-((2-(2,6-dioxopiperidine-3-)-1-oxoisoindoline-4-)oxy)butanamide], the IC50 in assay [1] (Homo sapiens, MM1.S, 168 h) is < 100 nM; in assay [2] (Homo sapiens, MV4-11, 168 h), 14 nM.
In the same order, the values of `CC(=O)N[C@@H](CCCc1cccc2c1CN(C1CCC(=O)NC1=O)C2=O)C(=O)Nc1ccccc1` (stereo partly drawn) [Example 164, (2S)-2-acetylamino-5-(2-(2,6-dioxopiperidine-3-)-1-oxoisoindoline-4-)-N-phenylpentanamide] are < 100 nM and 250 nM.
Take `CC(=O)N[C@@H](CCCc1cccc2c1CN(C1CCC(=O)NC1=O)C2=O)C(=O)NCc1ccccc1` (stereo partly drawn) [Example 166, (2S)-2-acetylamino-N-benzyl-5-(2-(2,6-dioxopiperidine-3-)-1-oxoisoindoline-4-)pentanamide]: the IC50 was 100 to 1000 nM in assay [1] (Homo sapiens, MM1.S, 168 h) and 200 nM in assay [2] (Homo sapiens, MV4-11, 168 h).
On to `CC(C)C(=O)N[C@@H](CCCc1cccc2c1CN(C1CCC(=O)NC1=O)C2=O)C(=O)NCc1ccccc1` (stereo partly drawn) [Example 167, (2S)-N-benzyl-5-(2-(2,6-dioxopiperidine-3-)-1-oxoisoindoline-4-)-2-iso butyramidopentaneamide], for which the IC50 is < 100 nM in assay [1] (Homo sapiens, MM1.S, 168 h) and 35 nM in assay [2] (Homo sapiens, MV4-11, 168 h).
Take `O=C1CCC(N2Cc3c(CCC[C@H](NC(=O)C4CCC4)C(=O)NCc4ccccc4)cccc3C2=O)C(=O)N1` (stereo partly drawn) [Example 173, N-((2S)-1-(benzylamine)-5-(2-(2,6-dioxopiperidine-3-)-1-oxoisoindoline-4-)-1-oxopentyl-2-)cyclobutylcarboxamide]: the IC50 is < 100 nM in assay [1] (Homo sapiens, MM1.S, 168 h) and 29 nM in assay [2] (Homo sapiens, MV4-11, 168 h).
For the compound `CC(=O)N[C@@H](CCCc1cccc2c1CN(C1CCC(=O)NC1=O)C2=O)C(=O)NCc1cccc(Br)c1` (stereo partly drawn) [Example 182, (2S)-2-acetylamino-N-(3-bromobenzyl)-5-(2-(2,6-dioxopiperidine-3-)-1-oxoisoindoline-4-)pentanamide], the IC50 in assay [1] (Homo sapiens, MM1.S, 168 h) was < 100 nM; in assay [2] (Homo sapiens, MV4-11, 168 h), 17 nM.
The matching figures for `O=C1CCC(N2Cc3c(CCCCN4CCN(c5cccc6ccsc56)CC4)cccc3C2=O)C(=O)N1` (stereo not shown) [Example 221, 3-(4-(4-(4-(benzothiophene-7-yl)piperazin-1-yl)butyl)-1-oxoisoindoline-2-yl)piperidine-2,6-dione]: < 100 nM and 600 nM.
With `O=C1CCC(N2Cc3c(CCCCCN4CCC(c5noc6cc(F)ccc56)CC4)cccc3C2=O)C(=O)N1` (stereo not shown) [Example 226, 3-(4-(5-(4-(6-fluorobenzisoxazole-3-yl)piperidin-1-yl)pentyl)-1-oxoisoindoline-2-yl)piperidine-2,6-], the IC50 in assay [1] was 1000 to 20000 nM; in assay [2], 510 nM.
For the compound `O=C1CCC(N2Cc3c(CCCCCN4CCN(c5c(Cl)cccc5Cl)CC4)cccc3C2=O)C(=O)N1` (stereo not shown) [Example 235, 3-(4-(5-(4-(2,6-dichlorophenyl)piperazine-1-yl)pentyl)-1-oxoisoindoline-2-yl)piperidine-2,6-dione], the IC50 in assay [1] (Homo sapiens, MM1.S, 168 h) is 100 to 1000 nM; in assay [2] (Homo sapiens, MV4-11, 168 h) it was 480 nM.
As to `N#CC1(c2cc(Cl)ccc2Cl)CCN(CCCCCc2cccc3c2CN(C2CCC(=O)NC2=O)C3=O)CC1` (stereo not shown) [Example 248, 4-(2,5-dichlorophenyl)-1-(5-(2-(2,6-dioxopiperidine-3-yl)-1-oxoisoindoline-4-yl)pentyl)piperidine-4-carbonitrile], the IC50 in assay [1] (Homo sapiens, MM1.S, 168 h) was 1000 to 20000 nM; in assay [2] (Homo sapiens, MV4-11, 168 h), 660 nM.
Consider `O=C1CCC(N2Cc3c(CCCCCN4CCC5(CC4)C(=O)Nc4cc(Cl)ccc45)cccc3C2=O)C(=O)N1` (stereo not shown) [Example 275, 3-(4-(5-(6-chloro-2-oxospiro[dihydroindole-3,4-piperidin]-1-yl)pentyl)-1-oxoisoindoline-2-yl)piperidine-2,6-dione], for which the IC50 in assay [1] (Homo sapiens, MM1.S, 168 h) was 100 to 1000 nM; in assay [2] (Homo sapiens, MV4-11, 168 h), 630 nM.
`Nc1cccc2c1CN(C1CCC(=O)NC1=O)C2=O` (stereo not shown) [Lenalidomide, lenalidomide, reference compound]: the IC50 in assay [1] (Homo sapiens, MM1.S, 168 h) was 100 to 1000 nM; in assay [2] (Homo sapiens, MV4-11, 168 h), > 20000 nM.
For the compound `Nc1cccc2c1C(=O)N(C1CCC(=O)NC1=O)C2=O` (stereo not shown) [Pomalidomide, pomalidomide, reference compound], the IC50 in assay [1] (Homo sapiens, MM1.S, 168 h) is < 100 nM; in assay [2] (Homo sapiens, MV4-11, 168 h) it was > 20000 nM.
